Reference: patent publication US20250332170A1, “VANDETANIB REDUCES INFLAMMATORY CYTOKINES AND AMELIORATES COVID-19” (Collaborations Pharmaceuticals, Inc., priority 2021, published 2025)
“Also recorded” adds a separate entry of the source.

Test system: Pseudo SARS-CoV-2 D614G
Format: cell-based

Compound	SARS-CoV-2 Spike protein-mediated entry, pseudovirus assay
CN1CCN(c2ccc(C(=O)Nc3n[nH]c4ccc(Cc5cc(F)cc(F)c5)cc34)c(NC3CCOCC3)c2)CC1 [Entrectinib]	no significant activity
COc1cc2c(Nc3ccc(Br)cc3F)ncnc2cc1OCC1CCN(C)CC1 [Vandetanib]	active; also recorded: decreased viral entry
